In patent US20230099067A1, “STABLE EQUIVALENT OF RESOLVIN E2” (NATIONAL UNIVERSITY CORPORATION HOKKAIDO UNIVERSITY, priority 2020, published 2023):

Tests used:
[1] = tested on: mouse acute inflammation model induced by intraperitoneally transplanting Propionibacterium acnes; experiment: Anti-inflammatory property evaluation assay: neutrophil count in peritoneal exudate of the P. acnes-induced mouse acute inflammation model; assay type: in vivo, mouse (male BALB/c); conditions: for anti-inflammatory activity as compared with the RvE2 and o-BZ-RvE2 groups / number of neutrophils in peritoneal exudate as compared with P. acnes-inoculated control mice: 300 pg intraperitoneally 8 hours after P. acnes injection, FIG. 3; for number of neutrophils in peritoneal exudate as compared with P. acnes-inoculated control mice: n=3 or 4
Method: The strength of the anti-inflammatory action of each compound was evaluated by using a mouse acute inflammation model induced by intraperitoneally transplanting Propionibacterium acnes.
The mouse acute inflammation model was produced using male BALB/c mice (6 to 7 weeks, obtained from Japan SLC Inc.). First, Propionibacterium acnes (P. acnes; 500 μg per mouse) subjected to heat sterilization was intraperitoneally injected into a mouse to prepare an acute inflammation model mouse. Eight or twelve hours after the injection of Propionibacterium acnes, the test compound was intraperitoneally administered to an acute inflammation model mouse. Then, 24 hours after the injection of Propionibacterium acnes, a peritoneal exudate was collected and the number of neutrophils was counted.
Then, 24 hours after the injection of Propionibacterium acnes, a peritoneal exudate was collected and the number of neutrophils was counted.
12 hours after the injection of Propionibacterium acnes, 300 fg, 300 pg, or 300 ng of RvE2 or o-BZ-RvE2, or only a solvent was independently intraperitoneally administered to acute inflammation model mice (n=3 or 4). Then, 24 hours after the injection of Propionibacterium acnes, a peritoneal exudate was collected and the number of neutrophils was counted.
300 pg of RvE2, o-BZ-RvE2, 17-deoxy-o-BZ-RvE2, 5-deoxy-o-BZ-RvE2, or 5,17-dideoxy-o-BZ-RvE2, or only a solvent was intraperitoneally administered to acute inflammation model mice 8 hours after the injection of Propionibacterium acnes (n=3 or 4). Then, 24 hours after the injection of Propionibacterium acnes, a peritoneal exudate was collected and the number of neutrophils was counted.

[2] = Evaluation of metabolic stability with human liver microsomes (HPLC remaining rate); assay type: in vitro ADME; conditions: 37° C.; for temporal change in the remaining rate in the presence of human liver microsomes: 0.1 M PBS (pH 7.4), HPLC, n=3, FIG. 4; for metabolic stability / degradation by human liver microsomes (in words): Example 1, 0-6 hours, FIG. 2
Method: 60 μL was aliquoted from an ethanol solution (1 mg/1 mL) of the synthetic compound to be evaluated, and the solvent was removed. A 0.1 M PBS buffer (435 μL, pH 7.4), CH3CN (10 μL), an NADPH regeneration system A solution (25 μL), and an NADPH regeneration system B solution (5 μL) were added to each compound, and stirring was carried out with a vortex mixer. After incubating the obtained reaction solution at 37° C. for 5 minutes, human liver microsomes (Corning (registered trade name) UltraPool (registered trade name) HLM 150) (25 μL) were added thereto, and 80 μL of the solution was aliquoted every hour (after 0, 1, 2, 3, and 6 hours from the addition). Each of the aliquoted solutions was quenched by adding CH3CN (80 μL) and then centrifuged (10,000 rpm) for 3 minutes at room temperature. The supernatant was collected and analyzed by using HPLC (COSMOSIL 5C18-MS-II, 4.6 mm×250 mm, CH3CN/H2O/TFA=35/65/0.01, 1.0 mL/min, detection at 254 nm).
The metabolic stability of 17-deoxy-o-BZ-RvE2 and 5-deoxy-o-BZ-RvE2 with respect to human liver microsomes was investigated. Specifically, for RvE2, o-BZ-RvE2, 17-deoxy-o-BZ-RvE2, and 5-deoxy-o-BZ-RvE2, the temporal change in the remaining rate (%) was measured by HPLC in 0.1 M PBS (pH 7.4) in the presence of human liver microsomes at 37° C. (n=3).

[3] = background statement; cited from earlier work
[4] = background statement; cited from earlier work; remark: listed apart in the source
[5] = exudate collected 24 hours after injection

Structure (SMILES) | anti-inflammatory activity as compared with the RvE2 and o-BZ-RvE2 groups ([1]; exudate at 24 hours) | number of neutrophils in peritoneal exudate as compared with P. acnes-inoculated control mice [1, 5] | temporal change in the remaining rate in the presence of human liver microsomes [2] | stability with respect to oxygen as compared with RvE2 [3] | metabolic stability [4] | metabolic stability / degradation by human liver microsomes (in words) [2] | infiltration of neutrophils into the abdominal cavity (number of neutrophils in peritoneal exudate) as compared with solvent alone ([1]; 300 pg intraperitoneally 12 hours after P. acnes injection, exudate collected 24 hours after injection, n=4, FIG. 1(a)) | anti-inflammatory action as compared with RvE2 ([1]; 300 fg, 300 pg or 300 ng intraperitoneally 12 hours after P. acnes injection, exudate at 24 hours, FIGS. 1(a) and 1(b))
CC[C@@H](O)/C=C/c1ccccc1C/C=C/CCCCC(=O)O [5-deoxy-o-BZ-RvE2] | attenuated | significantly decreased | gradually decreased as compared with RvE2 |  |  |  |  | 
CCC(O)C=CC=CCC1CC1CC=CC=CC(O)CCCC(=O)O (centres unmarked) [CP-RvE2] |  |  |  | improved stability with respect to oxygen | insufficient metabolic stability |  |  | 
CC[C@@H](O)/C=C/C=C\C/C=C\C/C=C\C=C\[C@@H](O)CCCC(=O)O [RvE2, (5S,6E,8Z,11Z,14Z,16E,18R)-5,18-dihydroxyicosa-6,8,11,14,16-pentaenoic acid, reference compound] |  | significantly decreased | decreased with the passage of time |  |  | easily degraded |  | 
CCC/C=C/c1ccccc1C/C=C/CCCCC(=O)O [5,17-dideoxy-o-BZ-RvE2] | attenuated | significantly decreased |  |  |  |  |  | 
CC[C@@H](O)/C=C/c1ccccc1C/C=C/[C@@H](O)CCCC(=O)O [o-BZ-RvE2] |  | significantly decreased |  |  |  | excellent in metabolic stability | significantly suppressed | excellent anti-inflammatory action as compared with RvE2
